Converted amounts (≈) assume the structure as drawn. Some results are limits rather than exact numbers.

The subject of test [1] is E. coli 25922. The test is described as follows: Antibacterial activity, microbroth dilution MIC (Table 1). The class given is cell-based, Escherichia coli. The settings on record: Escherichia coli; microbroth dilution; control Gram-negative E. coli 25922 strain; read-out: MIC, 25922. Put shortly:
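MIC (μg/mL) read as lowest concentration with no macroscopically visible growth; microbroth dilution format. E. coli 25922 served as control Gram-negative strain.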
On the technique in general: In broth dilution the organism is exposed to a series of concentrations in liquid medium.

The subject of test [2] is E. coli LZ3111. As to the kind of experiment: Antibacterial activity, MIC, quinolone resistant strain (Table 2). The test is classed as cell-based. The settings on record: Escherichia coli, LZ3111, read-out: MIC LZ3111. Summed up: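 Strain carries mutations conferring high-level quinolone resistance; tested by microbroth dilution, MIC recorded in μg/mL as lowest concentration preventing visible growth.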

The subject of test [3] is Escherichia coli (E. coli) BAS849. The test is described as follows: Antibacterial activity, microbroth dilution MIC (Table 1). The class given is cell-based. The settings on record: microbroth dilution, super sensitive Gram-negative E. coli BAS849, read-out: MIC, BAS849. Summed up:
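In a microbroth dilution test, the minimum inhibitory concentration was defined as the lowest compound level preventing growth seen by eye, and was given in μg/mL.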

Test [4] has as its system Staphylococcus aureus (S. aureus) 29213. The description is as above. The test is classed as cell-based. The following applies: microbroth dilution, Gram-positive S. aureus 29213, read-out: MIC, 29213. Put shortly:
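Broth microdilution against S. aureus 29213, E. coli 25922 and hypersensitive E. coli BAS849. MIC in μg/mL is the lowest drug concentration preventing macroscopically visible growth under test conditions.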

Test [5] concerns A. baumannii MXX2240. As to the kind of experiment: Antibacterial activity, MIC, resistant strain (Table 4). The test is classed as cell-based. The following applies: Acinetobacter baumannii, MXX2240; resistant A. baumannii MMX2240, multi-drug resistant clinical isolate; read-out: MIC, MMX2240. Summed up: (§1)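 Values are minimum inhibitory concentrations in μg/mL from broth microdilution, meaning no macroscopically visible growth at that concentration. Resistant MXX isolates are multi-drug resistant clinical strains.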

Test [6] concerns K. pneumoniae MXX1232. The description is as above. The following applies: Klebsiella pneumoniae, MXX1232; resistant K. pneumoniae MMX1232, multi-drug resistant clinical isolate; read-out: MIC, MMX1232. The class given is cell-based. Put shortly:
as §1

Test [7] deals with Pseudomonas aeruginosa (P. aeruginosa) 27853. The test is described as follows: Antibacterial activity, MIC (Table 5). The class given is cell-based. The following applies: P. aeruginosa 27853, read-out: MIC, 27853. Summed up: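 Compounds are serially diluted in broth and inoculated with the organism. Growth is then inspected macroscopically, and the lowest concentration showing none is taken as the MIC (μg/mL).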

In test [8] the test system is Klebsiella pneumoniae (K. pneumoniae) 35657. The test is described as follows: Antibacterial activity, MIC (Table 4). The test is classed as cell-based. The settings on record: K. pneumoniae 35657, read-out: MIC, 35657. Put shortly:
as §1

Test [9] deals with Acinetobacter baumannii (A. baumannii) BAA747. The test is described as follows: Antibacterial activity, MIC (Table 4). The test is classed as cell-based. The settings on record: A. baumannii BAA747, read-out: MIC, BAA747. Put shortly:
as §1

Turning to `CCc1ccc2cc(-c3[nH]c(=O)c(C(=O)O)c(O)c3C)[nH]c2c1` [Cpd 387, 6-(6-ethyl-1H-indol-2-yl)-4-hydroxy-5-methyl-2-oxo-1,2-dihydropyridine-3-carboxylic acid], the MIC in test [1] lay within 12.5 to 150 µg/mL (≈ 40 to 480 µM); in test [2], 12.5 to 150 µg/mL (≈ 40 to 480 µM); in test [3], 1 to 3.5 µg/mL (≈ 3.2 to 11.2 µM); in test [4], 12.5 to 150 µg/mL (≈ 40 to 480 µM); in test [5] it was 12.5 to 150 µg/mL (≈ 40 to 480 µM); in [6], 12.5 to 150 µg/mL (≈ 40 to 480 µM). Further, the MIC in [7], in test [8] and in test [9] was 12.5 to 150 µg/mL (≈ 40 to 480 µM) in each case.

With `Cc1cc2[nH]c(-c3[nH]c(=O)c(C(=O)O)c(O)c3C)cc2cc1F` [Cpd 388, 6-(5-fluoro-6-methyl-1H-indol-2-yl)-4-hydroxy-5-methyl-2-oxo-1,2-dihydropyridine-3-carboxylic acid], the MIC in test [1] is 12.5 to 150 µg/mL (≈ 39.5 to 474 µM); in test [2], 12.5 to 150 µg/mL (≈ 39.5 to 474 µM); in test [3], 3.5 to 12.5 µg/mL (≈ 11.1 to 39.5 µM); in test [4] it was 12.5 to 150 µg/mL (≈ 39.5 to 474 µM); in test [5] it was 12.5 to 150 µg/mL (≈ 39.5 to 474 µM); in test [6] it was 12.5 to 150 µg/mL (≈ 39.5 to 474 µM). Besides, the MIC in [7], in test [8] and in test [9] was 12.5 to 150 µg/mL (≈ 39.5 to 474 µM) in each case.

Turning to `CCc1c(-c2ccc3cn(C)nc3c2)[nH]c(=O)c(C(=O)O)c1O` [Cpd 389, 5-ethyl-4-hydroxy-6-(2-methyl-2H-indazol-6-yl)-2-oxo-1,2-dihydropyridine-3-carboxylic acid], the MIC is 12.5 to 150 µg/mL (≈ 39.9 to 479 µM) in test [1]; 3.5 to 12.5 µg/mL (≈ 11.2 to 39.9 µM) in test [2]; 3.5 to 12.5 µg/mL (≈ 11.2 to 39.9 µM) in [3]; 12.5 to 150 µg/mL (≈ 39.9 to 479 µM) in test [4]; 3.5 to 12.5 µg/mL (≈ 11.2 to 39.9 µM) in test [5]; 12.5 to 150 µg/mL (≈ 39.9 to 479 µM) in test [6]. Moreover, the MIC in test [7], in test [8] and in test [9] was 12.5 to 150 µg/mL (≈ 39.9 to 479 µM) each time.

In the case of `CCc1c(-c2ccc3cnn(C)c3c2)[nH]c(=O)c(C(=O)O)c1O` [Cpd 390, 5-ethyl-4-hydroxy-6-(1-methyl-1H-indazol-6-yl)-2-oxo-1,2-dihydropyridine-3-carboxylic acid], the MIC in [1] fell in the range of 12.5 to 150 µg/mL (≈ 39.9 to 479 µM); in test [2], 3.5 to 12.5 µg/mL (≈ 11.2 to 39.9 µM); in test [3], 12.5 to 150 µg/mL (≈ 39.9 to 479 µM); in [4], 12.5 to 150 µg/mL (≈ 39.9 to 479 µM); in test [5], 3.5 to 12.5 µg/mL (≈ 11.2 to 39.9 µM); in test [6], 12.5 to 150 µg/mL (≈ 39.9 to 479 µM). In addition, the MIC in test [7], in test [8] and in [9] was 12.5 to 150 µg/mL (≈ 39.9 to 479 µM) in each case.

Consider `CCc1c(-c2ccc3cn[nH]c3c2)[nH]c(=O)c(C(=O)O)c1O` [Cpd 391, 5-ethyl-4-hydroxy-6-(1H-indazol-6-yl)-2-oxo-1,2-dihydropyridine-3-carboxylic acid], for which the MIC in test [1] is 12.5 to 150 µg/mL (≈ 41.8 to 501 µM); in test [2], 3.5 to 12.5 µg/mL (≈ 11.7 to 41.8 µM); in test [3] it was 3.5 to 12.5 µg/mL (≈ 11.7 to 41.8 µM); in test [4], 12.5 to 150 µg/mL (≈ 41.8 to 501 µM); in test [5] it was 12.5 to 150 µg/mL (≈ 41.8 to 501 µM); in test [6], 12.5 to 150 µg/mL (≈ 41.8 to 501 µM). In addition, the MIC is 12.5 to 150 µg/mL (≈ 41.8 to 501 µM) in test [7], 3.5 to 12.5 µg/mL (≈ 11.7 to 41.8 µM) in test [8] and 12.5 to 150 µg/mL (≈ 41.8 to 501 µM) in [9].

As to `CCc1c(-c2ccc3[nH]ncc3c2)[nH]c(=O)c(C(=O)O)c1O` [Cpd 392, 5-ethyl-4-hydroxy-6-(1H-indazol-5-yl)-2-oxo-1,2-dihydropyridine-3-carboxylic acid], the MIC fell in the range of 12.5 to 150 µg/mL (≈ 41.8 to 501 µM) in [1]; 3.5 to 12.5 µg/mL (≈ 11.7 to 41.8 µM) in test [2]; 3.5 to 12.5 µg/mL (≈ 11.7 to 41.8 µM) in [3]; 12.5 to 150 µg/mL (≈ 41.8 to 501 µM) in test [4]; 12.5 to 150 µg/mL (≈ 41.8 to 501 µM) in test [5]; 12.5 to 150 µg/mL (≈ 41.8 to 501 µM) in test [6]. Also, the values for the MIC in test [7], in test [8] and in [9] were 12.5 to 150 µg/mL (≈ 41.8 to 501 µM), 3.5 to 12.5 µg/mL (≈ 11.7 to 41.8 µM) and 12.5 to 150 µg/mL (≈ 41.8 to 501 µM), respectively.

Take `CCc1c(-c2ccc3nn(C)cc3c2)[nH]c(=O)c(C(=O)O)c1O` [Cpd 393, 5-ethyl-4-hydroxy-6-(2-methyl-2H-indazol-5-yl)-2-oxo-1,2-dihydropyridine-3-carboxylic acid]: the MIC in test [1] was 3.5 to 12.5 µg/mL (≈ 11.2 to 39.9 µM); in test [2] it was 3.5 to 12.5 µg/mL (≈ 11.2 to 39.9 µM); in [3], under 1 µg/mL; in test [4], 12.5 to 150 µg/mL (≈ 39.9 to 479 µM); in test [5], 3.5 to 12.5 µg/mL (≈ 11.2 to 39.9 µM); in test [6], 12.5 to 150 µg/mL (≈ 39.9 to 479 µM). Moreover, the MIC is 12.5 to 150 µg/mL (≈ 39.9 to 479 µM) in test [7], 12.5 to 150 µg/mL (≈ 39.9 to 479 µM) in test [8] and 3.5 to 12.5 µg/mL (≈ 11.2 to 39.9 µM) in [9].

One may read the MIC as the lowest concentration found to suppress growth.

For the origin of these results see patent US9409905B2, “Antibacterial compounds and methods for use” (PTC THERAPEUTICS, INC., priority 2011, dated 2016).
